# How the values were obtained:
# [1] = test system: Pseudomonas aeruginosa PA14; experiment: Inhibition of LpxC in Pseudomonas aeruginosa PA14 assessed as reduction in microbial growth incubated for 22 hrs by MTT assay
# [2] = molecular target: T1, UDP-3-O-acyl-N-acetylglucosamine deacetylase (Escherichia coli K-12) (UniProt P0A725); experiment: Inhibition of LpxC in Escherichia coli DH5[alpha] assessed as reduction in microbial growth incubated for 22 hrs by MTT assay
# T1 sequence (whole entry): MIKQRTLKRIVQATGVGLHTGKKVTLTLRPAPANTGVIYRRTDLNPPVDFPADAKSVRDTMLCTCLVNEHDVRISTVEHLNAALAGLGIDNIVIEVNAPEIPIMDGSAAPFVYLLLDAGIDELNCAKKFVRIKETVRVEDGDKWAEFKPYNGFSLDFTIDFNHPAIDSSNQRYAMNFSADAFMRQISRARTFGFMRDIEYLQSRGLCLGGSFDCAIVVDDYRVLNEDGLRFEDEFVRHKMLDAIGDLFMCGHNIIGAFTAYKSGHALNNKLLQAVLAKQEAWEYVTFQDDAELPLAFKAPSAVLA
# [3] = molecular target: T1, UDP-3-O-acyl-N-acetylglucosamine deacetylase (Escherichia coli K-12); experiment: Inhibition of LpxC in Escherichia coli AB1157 assessed as reduction in microbial growth incubated for 22 hrs by MTT assay
# [4] = molecular target: T2, UDP-3-O-acyl-N-acetylglucosamine deacetylase (Pseudomonas aeruginosa (strain ATCC 15692 / PAO1 / 1C / PRS 101 / LMG12228)) (UniProt P47205)
# T2 sequence (whole entry): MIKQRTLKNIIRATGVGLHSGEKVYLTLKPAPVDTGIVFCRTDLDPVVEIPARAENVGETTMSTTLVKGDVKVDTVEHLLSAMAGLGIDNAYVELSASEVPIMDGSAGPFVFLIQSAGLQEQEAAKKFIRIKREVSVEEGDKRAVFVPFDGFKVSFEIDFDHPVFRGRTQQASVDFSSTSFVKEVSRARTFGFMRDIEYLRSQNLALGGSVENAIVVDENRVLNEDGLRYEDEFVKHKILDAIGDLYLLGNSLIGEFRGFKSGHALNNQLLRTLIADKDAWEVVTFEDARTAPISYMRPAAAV
# [5] = Elimination half life in mouse liver microsomes at 0.1 umol/L in presence of NADPH by LC/MS/MS method; assay type: ADME, microsome; details: read-out: beta t1/2
# [6] = Stability in human liver microsomes assessed as drug netabolism at 0.1 umol/L after 60 mins in presence of NADPH by LC/MS/MS method; assay type: ADME, microsome; details: 1 h, 0.1 µM
# [7] = Intrinsic clearance in human liver microsomes assessed as per gram protein at 0.1 umol/L in presence of NADPH by LC/MS/MS method; assay type: ADME, microsome; details: 0.1 µM
# [8] = Intrinsic clearance in mouse liver microsomes assessed as per gram protein at 0.1 umol/L in presence of NADPH by LC/MS/MS method; assay type: ADME, microsome; design: unit not given here; details: 0.1 µM
# [9] = Elimination half life in human liver microsomes at 0.1 umol/L in presence of NADPH by LC/MS/MS method; assay type: ADME, microsome; details: read-out: beta t1/2
MIC [1] [µg/mL],MIC [2] [µg/mL],MIC [3] [µg/mL],MIC [4] [µg/mL],half-life at 0.1 µM [5] [h],Stability [6],intrinsic clearance [7] [mL/min/g],intrinsic clearance in liver microsomes [8],half-life at 0.1 µM [9] [h],SMILES
> 256,> 256,> 256,> 256,,,,,,CC(CCc1ccc(-c2ccccc2)cc1)(C(=O)Nc1ccccc1N)S(C)(=O)=O (stereo not given)
6.25,0.048,0.192,6.25,,,,,,C[C@@H](O)[C@H](NC(=O)c1ccc(C#CC#CC2CC2)cc1Cl)C(=O)NO
0.625,0.078,0.078,0.625,1.58,Stable,0,22,,CC(C)(N)[C@H](NC(=O)c1ccc(C#CC#CC2CC2)cc1O)C(=O)NO
> 256,> 256,> 256,> 256,,,,,,C[C@@H](O)[C@H](NC(=O)[C@H]1CN(c2ccc(-c3ccccc3)cc2)C(=O)O1)C(=O)NO
0.625,0.156,0.078,0.625,3.88,,8,9,4.55,C[C@@H](O)[C@H](NC(=O)c1ccc(C#CC#CC2CC2)cc1O)C(=O)NO
,0.156,0.156,,,,,,,C[C@@H](O)[C@H](NC(=O)c1ccc(C#Cc2ccc(CN3CCOCC3)cc2)cc1)C(=O)NO
0.31,0.4,1,0.31,,,,,,CC(CCc1ccc(-c2ccccc2)cc1)(C(=O)NO)S(C)(=O)=O (racemic)
1.25,0.31,0.31,2.5,1.42,,11,25,3.33,C[C@@H](O)[C@H](NC(=O)c1ccc(C#CC#CC2CC2)cc1F)C(=O)NO
5,0.156,0.156,5,,,,,,Cc1cc(C#CC#CC2CC2)ccc1C(=O)N[C@H](C(=O)NO)[C@@H](C)O
10,0.625,1.25,20,,,,,,C[C@@H](O)[C@H](NC(=O)c1ccc(C#CC#CC2CC2)cn1)C(=O)NO
0.078,0.012,0.039,0.156,3.43,,1,10,56.9,CC(C)(N)[C@H](NC(=O)c1ccc(C#CC#CC2CC2)cc1)C(=O)NO
> 256,> 256,> 256,> 256,,,,,,C[C@@H](O)[C@H](NC(=O)[C@@H]1CN(c2ccc(-c3ccccc3)cc2)C(=O)O1)C(=O)NO
> 256,> 256,> 256,> 256,,,,,,C[C@@H](O)[C@@H](CN(O)C=O)NC(=O)c1ccc(C#CC#CC2CC2)cc1
10,0.31,0.156,10,,,,,,C[C@@H](O)[C@H](NC(=O)c1ccc(C#CC#CC2CC2)cc1OC(F)F)C(=O)NO
5,0.4,0.6,5,,,,,,C[C@@H](O)[C@H](NC(=O)c1ccc(C#CC#CC2CC2)cc1[N+](=O)[O-])C(=O)NO
0.63,0.31,0.4,0.63,2.38,,1,15,44.4,C[C@@H](O)[C@H](NC(=O)c1ccc(C#CC#CC2CC2)c(F)c1)C(=O)NO
0.625,0.04,0.04,0.625,,,,,,C[C@@H](O)[C@H](NC(=O)c1ccc(C#CC#CC2CC2)cc1N)C(=O)NO
50,20,40,100,,,,,,C[C@@H](O)[C@H](NS(=O)(=O)c1ccc(C#CC#CC2CC2)cc1)C(=O)NO
0.31,0.04,0.078,0.625,4,Stable,0,9,,CC(C)(N)[C@H](NC(=O)c1ccc(C#CC#CC2CC2)cc1F)C(=O)NO
> 256,> 256,> 256,> 256,,,,,,C[C@@H](O)[C@H](NC(=O)[C@@H]1CN(c2ccc(C#Cc3ccccc3)cc2)C(=O)O1)C(=O)NO
0.19,0.024,0.024,0.19,3.17,,3,11,10.6,C[C@@H](O)[C@H](NC(=O)c1ccc(C#CC#CC2CC2)cc1)C(=O)NO
40,40,80,40,,,,,,C[C@@H](O)[C@H](NC(=O)c1ccc(C#CC#CC2CC2)cc1C#N)C(=O)NO
> 256,> 256,> 256,> 256,,,,,,C[C@@H](O)[C@H](NC(=O)[C@H]1CN(c2ccc(C#Cc3ccccc3)cc2)C(=O)O1)C(=O)NO
10,2.5,1.25,10,,,,,,COc1cc(C#CC#CC2CC2)ccc1C(=O)N[C@H](C(=O)NO)[C@@H](C)O
0.31,0.019,0.019,0.31,2.25,Stable,0,16,,CC(C)(N)[C@H](NC(=O)c1ccc(C#CC#CC2CC2)c(F)c1)C(=O)NO
